Assay results: patent US12077503B2, “Substituted cyclic amides and their use as herbicides” (FMC CORPORATION, priority 2015, dated 2024)

How the values were obtained:
Format in all cases: in vivo
[1] = test system: redroot pigweed (Amaranthus retroflexus); experiment: Test G Pre-Emergence Protocol; settings: Amaranthus retroflexus, pre-emergence, 312 h, evaluated after 13 days; for pest or weed control at 15.625 g/ha: 15.625 g ai/ha; for pest or weed control at 15.625 g/ha / pest or weed control at 250 g/ha: read-out: Pigweed, Redroot damage rating (100=total damage to plant; 0=no damage to plant); for pest or weed control at 62.5 g/ha: 62.5 g ai/ha, 100=total damage to plant, 0=no damage to plant, read-out: Pigweed, Redroot damage rating; for pest or weed control at 250 g/ha: 250 g ai/ha
Procedure, shortened: (§1)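 Seeds were sown in standard soil and kept one day in a glasshouse (24/16° C day/night, 14 h light, 65% humidity), then sprayed with compound in acetone/water (50:50) containing 0.5% Tween 20 at 15.625, 62.5 or 250 g/ha. Damage was scored after 13 days (0 = none, 100 = total).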

[2] = test system: barnyardgrass (Echinochloa crus-galli); experiment: Test G Pre-Emergence Protocol; settings: Echinochloa crus-galli, pre-emergence, 312 h, evaluated after 13 days; for pest or weed control at 15.625 g/ha: 15.625 g ai/ha; for pest or weed control at 15.625 g/ha / pest or weed control at 250 g/ha: read-out: Barnyardgrass damage rating (100=total damage to plant; 0=no damage to plant); for pest or weed control at 62.5 g/ha: 62.5 g ai/ha, 100=total damage to plant, 0=no damage to plant, read-out: Barnyardgrass damage rating; for pest or weed control at 250 g/ha: 250 g ai/ha
Procedure, shortened: as §1

[3] = test system: velvetleaf (Abutilon theophrasti); experiment: Test G Pre-Emergence Protocol; settings: Abutilon theophrasti, pre-emergence, 312 h, evaluated after 13 days; for pest or weed control at 15.625 g/ha: 15.625 g ai/ha; for pest or weed control at 15.625 g/ha / pest or weed control at 250 g/ha: read-out: Velvetleaf damage rating (100=total damage to plant; 0=no damage to plant); for pest or weed control at 62.5 g/ha: 62.5 g ai/ha, 100=total damage to plant, 0=no damage to plant, read-out: Velvetleaf damage rating; for pest or weed control at 250 g/ha: 250 g ai/ha
Procedure, shortened: as §1

[4] = test system: ivy-leaved morning glory (Ipomoea hederacea); experiment: Test G Pre-Emergence Protocol; settings: Ipomoea, pre-emergence, 312 h, evaluated after 13 days; for pest or weed control at 15.625 g/ha: 15.625 g ai/ha; for pest or weed control at 15.625 g/ha / pest or weed control at 250 g/ha: read-out: Morningglory, Ivy-leaved damage rating (100=total damage to plant; 0=no damage to plant); for pest or weed control at 62.5 g/ha: 62.5 g ai/ha, 100=total damage to plant, 0=no damage to plant, read-out: Morningglory, Ivy-leaved damage rating; for pest or weed control at 250 g/ha: 250 g ai/ha
Procedure, shortened: as §1

corn (Zea mays) [5] = experiment: Test G Pre-Emergence Protocol; settings: Zea mays, pre-emergence, 312 h, evaluated after 13 days; for plant injury at 15.625 g/ha: 15.625 g ai/ha; for plant injury at 15.625 g/ha / plant injury at 250 g/ha: read-out: Corn damage rating (100=total damage to plant; 0=no damage to plant); for plant injury at 62.5 g/ha: 62.5 g ai/ha, 100=total damage to plant, 0=no damage to plant, read-out: Corn damage rating; for plant injury at 250 g/ha: 250 g ai/ha
Procedure, shortened: as §1

[6] = test system: giant foxtail (Setaria faberi); experiment: Test G Pre-Emergence Protocol; settings: Setaria faberi, pre-emergence, 312 h, evaluated after 13 days; for pest or weed control at 15.625 g/ha: 15.625 g ai/ha; for pest or weed control at 15.625 g/ha / pest or weed control at 250 g/ha: read-out: Foxtail, Giant damage rating (100=total damage to plant; 0=no damage to plant); for pest or weed control at 62.5 g/ha: 62.5 g ai/ha, 100=total damage to plant, 0=no damage to plant, read-out: Foxtail, Giant damage rating; for pest or weed control at 250 g/ha: 250 g ai/ha
Procedure, shortened: as §1

[7] = test system: redroot pigweed (Amaranthus retroflexus); experiment: Test G Post-Emergence Protocol; settings: Amaranthus retroflexus, post-emergence, 312 h, read-out: Pigweed, Redroot damage rating; for pest or weed control at 15.625 g/ha: 15.625 g ai/ha, evaluated after 13 days (100=total damage to plant; 0=no damage to plant); for pest or weed control at 62.5 g/ha: 62.5 g ai/ha; for pest or weed control at 62.5 g/ha / pest or weed control at 250 g/ha: evaluated after 13 days, 100=total damage to plant, 0=no damage to plant; for pest or weed control at 250 g/ha: 250 g ai/ha
Procedure, shortened: (§2)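 Values are percent visual injury at 13 days after treatment (0 none, 100 total). Treatment was a post-emergence spray at 15.625, 62.5 or 250 g/ha on 8-day-old pot plants kept at 24/16 °C.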

[8] = test system: barnyardgrass (Echinochloa crus-galli); experiment: Test G Post-Emergence Protocol; settings: Echinochloa crus-galli, post-emergence, 312 h, read-out: Barnyardgrass damage rating; for pest or weed control at 15.625 g/ha: 15.625 g ai/ha, evaluated after 13 days (100=total damage to plant; 0=no damage to plant); for pest or weed control at 62.5 g/ha: 62.5 g ai/ha; for pest or weed control at 62.5 g/ha / pest or weed control at 250 g/ha: evaluated after 13 days, 100=total damage to plant, 0=no damage to plant; for pest or weed control at 250 g/ha: 250 g ai/ha
Procedure, shortened: as §2

[9] = test system: velvetleaf (Abutilon theophrasti); experiment: Test G Post-Emergence Protocol; settings: Abutilon theophrasti, post-emergence, 312 h, read-out: Velvetleaf damage rating; for pest or weed control at 15.625 g/ha: 15.625 g ai/ha, evaluated after 13 days (100=total damage to plant; 0=no damage to plant); for pest or weed control at 62.5 g/ha: 62.5 g ai/ha; for pest or weed control at 62.5 g/ha / pest or weed control at 250 g/ha: evaluated after 13 days, 100=total damage to plant, 0=no damage to plant; for pest or weed control at 250 g/ha: 250 g ai/ha
Procedure, shortened: as §2

[10] = test system: ivy-leaved morning glory (Ipomoea hederacea); experiment: Test G Post-Emergence Protocol; settings: Ipomoea, post-emergence, 312 h, read-out: Morningglory, Ivy-leaved damage rating; for pest or weed control at 15.625 g/ha: 15.625 g ai/ha, evaluated after 13 days (100=total damage to plant; 0=no damage to plant); for pest or weed control at 62.5 g/ha: 62.5 g ai/ha; for pest or weed control at 62.5 g/ha / pest or weed control at 250 g/ha: evaluated after 13 days, 100=total damage to plant, 0=no damage to plant; for pest or weed control at 250 g/ha: 250 g ai/ha
Procedure, shortened: as §2

corn (Zea mays) [11] = experiment: Test G Post-Emergence Protocol; settings: Zea mays, post-emergence, 312 h, read-out: Corn damage rating; for plant injury at 15.625 g/ha: 15.625 g ai/ha, evaluated after 13 days (100=total damage to plant; 0=no damage to plant); for plant injury at 62.5 g/ha: 62.5 g ai/ha; for plant injury at 62.5 g/ha / plant injury at 250 g/ha: evaluated after 13 days, 100=total damage to plant, 0=no damage to plant; for plant injury at 250 g/ha: 250 g ai/ha
Procedure, shortened: as §2

[12] = test system: giant foxtail (Setaria faberi); experiment: Test G Post-Emergence Protocol; settings: Setaria faberi, post-emergence, 312 h, read-out: Foxtail, Giant damage rating; for pest or weed control at 15.625 g/ha: 15.625 g ai/ha, evaluated after 13 days (100=total damage to plant; 0=no damage to plant); for pest or weed control at 62.5 g/ha: 62.5 g ai/ha; for pest or weed control at 62.5 g/ha / pest or weed control at 250 g/ha: evaluated after 13 days, 100=total damage to plant, 0=no damage to plant; for pest or weed control at 250 g/ha: 250 g ai/ha
Procedure, shortened: as §2

CN1C[C@@H](c2ccc(C(F)(F)F)cc2)[C@H](C(=O)Nc2cscn2)C1=O (racemic) [Compound 1659]
pest or weed control at 15.625 g/ha [1]: 0% | pest or weed control at 62.5 g/ha [1]: 0% | pest or weed control at 250 g/ha [1]: 0% | pest or weed control at 15.625 g/ha [2]: 0% | pest or weed control at 62.5 g/ha [2]: 0% | pest or weed control at 250 g/ha [2]: 0% | pest or weed control at 15.625 g/ha [3]: 0% | pest or weed control at 62.5 g/ha [3]: 0% | pest or weed control at 250 g/ha [3]: 0% | pest or weed control at 15.625 g/ha [4]: 0% | pest or weed control at 62.5 g/ha [4]: 0% | pest or weed control at 250 g/ha [4]: 0% | plant injury at 15.625 g/ha (corn (Zea mays) [5]): 0% | plant injury at 62.5 g/ha (corn (Zea mays) [5]): 0% | plant injury at 250 g/ha (corn (Zea mays) [5]): 0% | pest or weed control at 15.625 g/ha [6]: 0% | pest or weed control at 62.5 g/ha [6]: 0% | pest or weed control at 250 g/ha [6]: 0% | pest or weed control at 15.625 g/ha [7]: 0% | pest or weed control at 62.5 g/ha [7]: 0% | pest or weed control at 250 g/ha [7]: 20% | pest or weed control at 15.625 g/ha [8]: 0% | pest or weed control at 62.5 g/ha [8]: 0% | pest or weed control at 250 g/ha [8]: 20% | pest or weed control at 15.625 g/ha [9]: 0% | pest or weed control at 62.5 g/ha [9]: 0% | pest or weed control at 250 g/ha [9]: 0% | pest or weed control at 15.625 g/ha [10]: 0% | pest or weed control at 62.5 g/ha [10]: 0% | pest or weed control at 250 g/ha [10]: 0% | plant injury at 15.625 g/ha (corn (Zea mays) [11]): 0% | plant injury at 62.5 g/ha (corn (Zea mays) [11]): 0% | plant injury at 250 g/ha (corn (Zea mays) [11]): 10% | pest or weed control at 15.625 g/ha [12]: 0% | pest or weed control at 62.5 g/ha [12]: 0% | pest or weed control at 250 g/ha [12]: 40%

CC(C)S(=O)(=O)c1ccccc1NC(=O)[C@H]1C(=O)N(C)C[C@@H]1c1ccc(C(F)(F)F)cc1 (racemic) [Compound 1665]
pest or weed control at 15.625 g/ha [1]: 0% | pest or weed control at 62.5 g/ha [1]: 0% | pest or weed control at 250 g/ha [1]: 20% | pest or weed control at 15.625 g/ha [2]: 0% | pest or weed control at 62.5 g/ha [2]: 0% | pest or weed control at 250 g/ha [2]: 20% | pest or weed control at 15.625 g/ha [3]: 0% | pest or weed control at 62.5 g/ha [3]: 0% | pest or weed control at 250 g/ha [3]: 0% | pest or weed control at 15.625 g/ha [4]: 0% | pest or weed control at 62.5 g/ha [4]: 0% | pest or weed control at 250 g/ha [4]: 20% | plant injury at 15.625 g/ha (corn (Zea mays) [5]): 0% | plant injury at 62.5 g/ha (corn (Zea mays) [5]): 0% | plant injury at 250 g/ha (corn (Zea mays) [5]): 0% | pest or weed control at 15.625 g/ha [6]: 0% | pest or weed control at 62.5 g/ha [6]: 0% | pest or weed control at 250 g/ha [6]: 80% | pest or weed control at 15.625 g/ha [7]: 0% | pest or weed control at 62.5 g/ha [7]: 0% | pest or weed control at 250 g/ha [7]: 40% | pest or weed control at 15.625 g/ha [8]: 0% | pest or weed control at 62.5 g/ha [8]: 0% | pest or weed control at 250 g/ha [8]: 40% | pest or weed control at 15.625 g/ha [9]: 0% | pest or weed control at 62.5 g/ha [9]: 0% | pest or weed control at 250 g/ha [9]: 0% | pest or weed control at 15.625 g/ha [10]: 0% | pest or weed control at 62.5 g/ha [10]: 0% | pest or weed control at 250 g/ha [10]: 0% | plant injury at 15.625 g/ha (corn (Zea mays) [11]): 0% | plant injury at 62.5 g/ha (corn (Zea mays) [11]): 0% | plant injury at 250 g/ha (corn (Zea mays) [11]): 0% | pest or weed control at 15.625 g/ha [12]: 0% | pest or weed control at 62.5 g/ha [12]: 0% | pest or weed control at 250 g/ha [12]: 60%
